# Measured values published in patent US20080234306A1, “N-Oxides of 4,5-Epoxy-Morphinanium Analogs” (Progenics Pharmaceuticals, Inc., priority 2006, published 2008).
# Columns and labels:
# μ-opioid receptor [1] = test system: T1, μ-opioid receptor; assay: Evaluation of agonist activity at the μ-opioid receptor, guinea pig ileum test
# T1 construct: Responses to increasing concentrations of the compounds (% control response to DAMGO); other: compound 1.0E^−04 M; Responses to increasing concentrations of the compounds (% control response to DAMGO); other: compound 1.0E^−08 M; other: compound 3.0E^−08 M; Responses to increasing concentrations of the com
# Description: (§1) Evaluation for Agonist and Antagonist Activities at the […] Receptors in the Guinea Pig Ileum
# (§2) Agonist/antagonist activity at the μ-opioid receptor was determined using the well known guinea pig ileum test. Briefly, an a section of ileum was placed in a stabilized solution in a tensed state. Transducers were used to measure changes in tension upon electrical stimulation to the tissue before and after challenge with a potential agonist/antagonist Using a control, constriction inhibition, and constriction inhibition cancellation, may be measured.
# μ-opioid receptor [2] = target: T2, μ-opioid receptor (Cavia porcellus, UniProt A0ACM8Q262); assay: Evaluation of antagonist activity at the μ-opioid receptor, guinea pig ileum test (tissue model, responses to DAMGO); details: for IC50: tissue model for antagonist activity
# Description: as §1, §2
# human μ-receptor = human μ-receptor (Homo sapiens, UniProt P35372); assay: human μ-receptor model (binding, Ki); details: read-out: % Inhibition at 1 × 10^−5 M
# μ-opioid receptor [3] = target: T2, μ-opioid receptor; assay: Evaluation of agonist activity at the μ-opioid receptor, guinea pig ileum test
# Description: as §1, §2
# [4] = guinea pig, read-out: Responses to DAMGO (1.0E−07 M) in the presence of increasing concentrations of the compounds (% control response)
# Sequence of human μ-receptor (P35372 whole entry): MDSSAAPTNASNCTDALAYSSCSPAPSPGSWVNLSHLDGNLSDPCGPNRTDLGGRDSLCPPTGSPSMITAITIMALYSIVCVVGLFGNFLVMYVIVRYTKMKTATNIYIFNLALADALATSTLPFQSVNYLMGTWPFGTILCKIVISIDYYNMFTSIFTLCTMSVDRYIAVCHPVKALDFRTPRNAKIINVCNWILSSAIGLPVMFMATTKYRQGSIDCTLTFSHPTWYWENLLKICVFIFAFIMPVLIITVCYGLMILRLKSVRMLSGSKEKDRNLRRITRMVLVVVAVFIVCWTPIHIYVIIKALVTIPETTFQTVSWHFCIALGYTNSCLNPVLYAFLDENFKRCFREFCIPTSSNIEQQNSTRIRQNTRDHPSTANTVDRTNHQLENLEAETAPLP
# T2 sequence (A0ACM8Q262 1-400): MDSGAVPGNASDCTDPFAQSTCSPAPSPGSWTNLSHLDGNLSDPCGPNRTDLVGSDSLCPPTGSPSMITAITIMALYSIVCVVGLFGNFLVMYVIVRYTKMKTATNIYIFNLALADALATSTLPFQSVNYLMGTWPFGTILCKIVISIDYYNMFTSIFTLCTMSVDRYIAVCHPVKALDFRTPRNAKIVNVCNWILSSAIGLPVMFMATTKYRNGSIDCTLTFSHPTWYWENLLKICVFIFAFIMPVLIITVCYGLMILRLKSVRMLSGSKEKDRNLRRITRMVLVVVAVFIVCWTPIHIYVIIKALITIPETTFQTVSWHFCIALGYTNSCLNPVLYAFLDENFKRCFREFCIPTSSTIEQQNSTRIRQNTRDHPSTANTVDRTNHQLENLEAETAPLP
smiles,measurement,setting,value
[O-][N+]1(CC2CC2)CC[C@]23c4c5ccc(O)c4O[C@H]2[C@@H](O)CC[C@@]3(OCCCc2ccccc2)[C@H]1C5 (stereo partly drawn),melting point,,155 to 159 °C
O=C1CC[C@H]2[C@H]3Cc4ccc(O)c5c4[C@@]2(CC[N+]3([O-])CC2CC2)[C@H]1O5 (stereo partly drawn),melting point,,209 to 211 °C
C=C1CC[C@@]2(OCCCc3ccccc3)[C@H]3Cc4ccc(O)c5c4[C@@]2(CC[N+]3([O-])CC2CC2)[C@H]1O5.O=C(O)C(F)(F)F (stereo partly drawn),melting point,,182 °C (dec.)
"O=C1CC[C@@]2(O)[C@H]3Cc4ccc(O)c5c4[C@@]2(CC[N+]3([O-])CC2CC2)[C@H]1O5 (stereo partly drawn) [Compound C0001, (S)-17-Cyclopropylmethyl-4,5α-epoxy-3,14-hydroxy-morphinan-6-one N-oxide]",Responses to increasing concentrations of the compounds (% control response to DAMGO),μ-opioid receptor [1]; compound 1.0E^−04 M,0%
same,Responses to increasing concentrations of the compounds (% control response to DAMGO),μ-opioid receptor [1]; compound 1.0E^−05 M,0%
same,Responses to increasing concentrations of the compounds (% control response to DAMGO),μ-opioid receptor [1]; compound 1.0E^−06 M,0%
same,Responses to increasing concentrations of the compounds (% control response to DAMGO),μ-opioid receptor [1]; compound 1.0E^−07 M,0%
same,Responses to increasing concentrations of the compounds (% control response to DAMGO),μ-opioid receptor [1]; compound 1.0E^−08 M,0%
same,Responses to increasing concentrations of the compounds (% control response to DAMGO),μ-opioid receptor [1]; compound 3.0E^−05 M,0%
same,Responses to increasing concentrations of the compounds (% control response to DAMGO),μ-opioid receptor [1]; compound 3.0E^−06 M,0%
same,Responses to increasing concentrations of the compounds (% control response to DAMGO),μ-opioid receptor [1]; compound 3.0E^−07 M,0%
same,Responses to increasing concentrations of the compounds (% control response to DAMGO),μ-opioid receptor [1]; compound 3.0E^−08 M,0%
same,agonistic activity,"μ-opioid receptor [1]; concentration of 1.0×10^−4 M, versus DAMGO",No agonistic activity
same,remaining activity at 0.01 µM,μ-opioid receptor [2]; [4],100%
same,remaining activity at 0.03 µM,μ-opioid receptor [2]; [4],91%
same,remaining activity at 0.1 µM,μ-opioid receptor [2]; [4],80%
same,remaining activity at 0.3 µM,μ-opioid receptor [2]; [4],62%
same,remaining activity at 1 µM,μ-opioid receptor [2]; [4],36%
same,remaining activity at 3 µM,μ-opioid receptor [2]; [4],23%
same,remaining activity at 10 µM,μ-opioid receptor [2]; [4],16%
same,remaining activity at 30 µM,μ-opioid receptor [2]; [4],16%
same,remaining activity at 100 µM,μ-opioid receptor [2]; [4],16%
same,IC50,μ-opioid receptor [2],560 nM
same,inhibition at 10 µM,human μ-receptor,96%
C=C1CC[C@@]2(O)[C@H]3Cc4ccc(O)c5c4[C@@]2(CC[N+]3([O-])CC2CC2)[C@H]1O5 (stereo partly drawn) [Compound C0002],IC50,μ-opioid receptor [2],> 100000 nM
same,inhibition at 10 µM,human μ-receptor,94%
"Oc1ccc2c3c1O[C@H]1[C@@H](O)CC[C@@]4(O)[C@@H](C2)[N+](O)(CC2CC2)CC[C@]314 (stereo partly drawn) [Compound C0003, (S)-17-Cyclopropylmethyl-4,5α-epoxy-morphinan-3,6α,14-triol N-oxide]",inhibition at 10 µM,human μ-receptor,100%
"[O-][N+]1(CC2CC2)CC[C@]23c4c5ccc(O)c4O[C@H]2[C@@H](Cn2ccnc2)CC[C@@]3(O)[C@H]1C5 (stereo partly drawn) [Compound C0018, 17-Cyclopropylmethyl-4,5α-epoxy-3,14-dihydroxy-6α-(1H-imidazol-1-yl)methyl morphinan N-oxide]",inhibition at 10 µM,human μ-receptor,89%
"[O-][N+]1(CC2CC2)CC[C@]23c4c5ccc(O)c4O[C@H]2[C@@H](CO)CC[C@@]3(O)[C@H]1C5 (stereo partly drawn) [Compound C0021, 17-cyclopropylmethyl-4,5α-epoxy-3,14-dihydroxy-6α-hydroxymethyl morphinan N-oxide]",inhibition at 10 µM,human μ-receptor,95%
"[O-][N+]1(CC2CC2)CC[C@]23c4c5ccc(O)c4O[C@H]2CCC[C@@]3(O)[C@H]1C5 (stereo partly drawn) [Compound C0023, 17-Cyclopropylmethyl-4,5α-epoxy-3,14-dihydroxymorphinan-N-oxide]",inhibition at 10 µM,human μ-receptor,101%
"CC1C[C@@]2(O)[C@H]3Cc4ccc(O)c5c4[C@@]2(CC[N+]3([O-])CC2CC2)[C@@H](O5)C1=O (stereo partly drawn) [Compound C0030, (S)-17-Cyclopropylmethyl-4,5α-epoxy-3,14-dihydroxy-7-methyl-morphinan-6-one N-oxide]",inhibition at 10 µM,human μ-receptor,67%
"C[C@@H](NC(=O)[C@@H](N)Cc1ccc(O)cc1)C(=O)NCC(=O)N(C)[C@@H](Cc1ccccc1)C(=O)NCCO [DAMGO, D-Ala^2,N-Me-Phe^4,Gly^5-ol-enkephalin, reference compound]",Response + Naloxone (1.0E^−07 M),"μ-opioid receptor [3]; after highest compound concentration, + naloxone 1.0E^−07 M",4%
same,activation at 1 µM,"μ-opioid receptor [3]; compound 1.0E^−06 M, read-out: Responses to increasing concentrations of the compounds (% control response to DAMGO)",103%
same,activation at 0.1 µM,"μ-opioid receptor [3]; compound 1.0E^−07 M, read-out: Responses to increasing concentrations of the compounds (% control response to DAMGO)",96%
same,activation at 0.01 µM,"μ-opioid receptor [3]; compound 1.0E^−08 M, read-out: Responses to increasing concentrations of the compounds (% control response to DAMGO)",57%
same,activation at 0.001 µM,"μ-opioid receptor [3]; compound 1.0E−09 M, read-out: Responses to increasing concentrations of the compounds (% control response to DAMGO)",9%
